Several values for one entry are separate records, joined by “and”; a condition that tells them apart may be missing. Equal entries are not always repeated. Where two headings read alike, the source gives them in different places. Non-standard residues stand in square brackets, D forms with d. Residues, ends and D or L forms follow the SMILES beside them. *: point of attachment. Acetyl(1,8-naphthalimido) = O=C1c2cccc3cccc(c23)C(=O)N1CC(=O)*; Caffeoyl = O=C(/C=C/c1ccc(O)c(O)c1)*; βAla = NCCC(=O)O
Legend:
Bacillus subtilis 3562 = experiment: Antimicrobial assay, agar/disc diffusion, B. subtilis; type: cell-based; conditions: 6 μL of 20 μM solution on 6 mm paper disc, 24 h
Procedure: (§1) The microbial cultures were placed in a thin layer on sterile plates. On sterile paper discs, 6 μL of 20 μM solutions in distilled water of the test compounds was placed. Further, the discs were incorporated into a thin layer of sterile plates (Figure 3). The studies were triplicates for each concentration, and the diameters of the obtained zones represent the average value of the three results.
(§2) All newly synthesized derivatives of (KLAKLAK)2-NH2 at concentrations of 20 μM in distilled water were tested against model strains E. coli NBIMCC K12 407, B. subtilis NBIMCC 3562 and C. albicans NBIMCC 74. The strains were obtained from the National Bank for Industrial Microorganisms and Cell Cultures (NBIMCC, Sofia, Bulgaria). Exponential cultures (1 × 10^7 cfu/mL) of strains E. coli K12 407 were obtained in Luria-Bertani (LB, HiMedia, Mumbai, India); for B. subtilis 3562, an initial bacterial concentration of 1 × 10^6 cfu/mL was obtained in nutrient broth (NB, HiMedia, Mumbai, India); and for C. albicans 74, and initial bacterial concentration of 1 × 10^5 cfu/mL was obtained in yeast mold (YM) medium. Cultivation was performed in an ES-20/60 incubator shaker (Biosan, Riga, Latvia) at 30 °C for B. subtilis 3562 and at 37 °C for E. coli K12 407 and C. albicans 74 with shaking at 220 rpm for 24 h. The agar diffusion method was applied to determine the antimicrobial activity of the tested compounds. LB/NB/YM plates were inoculated by spreading 100 μL of each microbial culture on their surface, followed by incubation at 30/37 °C for penetration of suspension into the agar. After 30 min, sterile paper discs (6 mm in diameter) were soaked with the tested compounds in amounts of 6 µL and placed on the surface of agar Petri dishes. The plates were incubated at 30/37 °C for 24 h. Antimicrobial activity was assessed by measuring the diameter of the obtained inhibition zones. Sterile paper discs soaked with water were used as blank controls. Mean values were calculated by performing the experiments in triplicates.

[1] = Hydrolytic stability in model buffer solutions by HPLC; type: physicochemical; conditions: 72 h, model buffer solutions pH 2, pH 7.4 and pH 9, HPLC
Procedure: HPLC profiles of all target compounds at three different pH values that mimic human pH in the stomach (pH 2), blood plasma (pH 7.4) and small intestine (pH 9) are presented in the Supplementary Materials.
The designed changes in the structures, i.e., C-terminal amide modification, as well as the introduction of a β-Ala moiety, lead to complete stability of the target compounds during the test period in all model conditions.
The obtained solution was made up to 1000.0 mL with dH2O; • (ii) Buffer with pH 7.4–2.38 g Na2HPO4, 0.19 g KH2PO4 and 8.0 g NaCl was dissolved in dH2O. The obtained solution was made up to 1000.0 mL with dH2O. • (iii) Buffer with pH 9.0–1000.0 mL of solution I was mixed with 420.0 mL of solution II. Solution I: 6.18 g of H3BO3 was dissolved in 0.1 mol/L KCl, and it was made up to 1000.0 mL with the same solvent; Solution II: 0.1 mol/L NaOH.

MCF-7 = experiment: Antiproliferative activity, MTT dye-reduction assay, MCF-7; type: cell-based, human; conditions: for IC50: MTT, 72 h, read-out: IC50 of Mean ± SD Antiproliferative Activity MCF-7; for SI ± SD MCF-7 (selective index): SI = IC50 of MCF-10A/IC50 of MCF-7
Procedure: (§3) The compounds were studied for antiproliferative activity by MTT dye-reduction assay. Cell cultures from different cell lines (MCF-10A, MCF-7 and MDA-MB-231) were incubated with the test substances at a concentration of 15 to 2000 μM for 72 h at 37 °C, 5% CO2 and 95% humidity. The antiproliferative activity expressed in % relative to the negative control was determined.
(§4) The antiproliferative activity testing was performed on cell cultures from several human cell lines using the standard MTT dye-reduction assay, described by Mosmann. The assay is based on the metabolism of the tetrazolium salt 3-(4,5-dimethylthiazol-2-yl)-2,5-diphenyltetrazolium bromide (MTT) to insoluble formazan by mitochondrial reductases. The formazan concentration can be determined spectrophotometrically. The measured absorption is an indicator of cell viability and metabolic activity. The following cell lines were used in the experiments: mammary gland type A adenocarcinoma ER+, PR+ and HER2− (MCF-7); triple-negative breast cancer ER−, PR−, and HER2− (MDA-MB-231); and breast, nontumorigenic epithelial cell line (MCF-10A). The cell lines were routinely grown as monolayers in 75 cm^2 tissue culture flasks under standard conditions (described above). Cells were plated at a density of 1 × 10^3 cells in 100 µL in each well of 96-well flat-bottomed microplates and allowed to adhere for 24 h before treatment with test compounds. A concentration range from 15 to 2000 μM was applied for 72 h. Formazan absorption was registered using a microplate reader at λ = 540 nm. Antiproliferative activities were expressed as IC50 values (concentrations required for 50% inhibition of cell growth), calculated using nonlinear regression analysis (GraphPad Prism 4 Software, https://www.graphpad.com).

MDA-MB-231 = experiment: Antiproliferative activity, MTT dye-reduction assay, MDA-MB-231; type: cell-based, human; conditions: for IC50: MTT, 72 h, read-out: IC50 of Mean ± SD Antiproliferative Activity MDA-MB-231; for SI ± SD MDA-MB-231 (selective index): SI = IC50 of MCF-10A/IC50 of MDA-MB-231
Procedure: as §3, §4

MCF-10A = experiment: Antiproliferative activity, MTT dye-reduction assay, MCF-10A; type: cell-based, human; conditions: 72 h, read-out: IC50 of Mean ± SD Antiproliferative Activity MCF-10A
Procedure: as §3
MCF-10A is a reliable model for normal human mammary epithelial cells, which serves as a control in experiments to determine antitumor activity.
as §4

Candida albicans 74 = experiment: Antimicrobial assay, agar/disc diffusion, C. albicans; type: cell-based; conditions: 6 μL of 20 μM solution on 6 mm paper disc, 24 h
Procedure: as §1, §2

[2] = In vitro cytotoxicity, 3T3 NRU test; type: cell-based; conditions: mouse, BALB/3T3 clone A31 mouse embryo cells, 24 h incubation, 15 to 2000 μM, read-out: IC50 of Mean ± SD Cytotoxicity BALB 3T3 (CC50)
Procedure: The newly synthesized compounds were studied for cytotoxicity assessment by an in vitro 3T3 NRU test. The cells were incubated with the test substances at a concentration of 15 to 2000 μM for 24 h at 37 °C, 5% CO2 and 95% humidity. The cytotoxicity expressed in % relative to the negative control was determined.
The cytotoxicity testing was performed as described by Borenfreund et al. and the latest modification of the validated BALB/3T3 clone A31 Neutral Red Uptake Assay (3T3 NRU test). BALB/3T3 clone A31 mouse embryo cells were grown as a monolayer in 75 cm^2 tissue culture flasks in high-glucose DMEM (4.5 g/L), supplemented with 10% FBS and antibiotics. Cultures were maintained at 37.5 °C in a humidified atmosphere under 5% CO2. Cells were plated at a density of 1 × 10^4 cells in 100 μL culture medium in each well of 96-well flat-bottomed microplates and allowed to adhere for 24 h before treatment with test compounds, dissolved in DMSO and further diluted in culture medium. A wide concentration range was applied (from 15 to 2000 μM), and the cells were incubated for an additional 24 h. After treatment with Neutral Red medium, washing and application of the ethanol/acetic acid solution (NR Desorb), the absorption was measured on a TECAN microplate reader at wavelength 540 nm. The data obtained are on average from three independent experiments ± SD, n = 6.

Escherichia coli K12 407 = experiment: Antimicrobial assay, agar/disc diffusion, E. coli; type: cell-based; conditions: 6 μL of 20 μM solution on 6 mm paper disc, 24 h
Procedure: as §1, §2

Row | Compound | Inhibition zones size, Bacillus subtilis 3562 (Bacillus subtilis 3562; listed as S4) | Hydrolytic stability [1] | IC50 (MCF-7) | SI ± SD MCF-7 (selective index) (MCF-7) | SI ± SD MCF-7 (selective index) (MCF-7; listed as Si 4) | IC50 (MDA-MB-231) | SI ± SD MDA-MB-231 (selective index) (MDA-MB-231) | IC50 (MCF-10A) | Inhibition zones size, Candida albicans 74 (Candida albicans 74) | Inhibition zones size, Candida albicans 74 (Candida albicans 74; listed as Si 4) | CC50 at 24 h [2] | Inhibition zones size, Escherichia coli K12 407 (Escherichia coli K12 407; listed as S4) | Inhibition zones size, Bacillus subtilis 3562 (Bacillus subtilis 3562) | Inhibition zones size, Candida albicans 74 (Candida albicans 74; listed as Si 5) | Inhibition zones size, Escherichia coli K12 407 (Escherichia coli K12 407) | IC50 (MCF-7; listed as Si 9) | SI ± SD MCF-7 (selective index) (MCF-7; listed as Si 9) | SI ± SD MCF-7 (selective index) (MCF-7; listed as Si 10) | melting point
1 | CC(C)C[C@H](NC(=O)[C@H](CCCCN)NC(=O)CCNC(=O)[C@H](CC(C)C)NC(=O)[C@H](CCCCN)NC(=O)CN1C(=O)c2cccc3cccc(c23)C1=O)C(=O)NCCC(=O)N[C@@H](CCCCN)C(=O)N[C@@H](CCCCN)C(=O)N[C@@H](CC(C)C)C(=O)NCCC(=O)N[C@@H](CCCCN)C(=O)N[C@@H](CC(C)C)C(=O)NCCC(=O)N[C@@H](CCCCN)C(N)=O [Si4, 1,8-NphtG-(KLβ-AKLβ-AK)2-NH2] ({Acetyl(1,8-naphthalimido)}-KL[βAla]KL[βAla]KKL[βAla]KL[βAla]K-NH2) | 15.83 mm | complete hydrolytic stability | 881 ± 80.5 µM | 1.51 ± 0.148 | 1.505 ± 0.148 | 1410 ± 26.2 µM | 0.940 ± 0.049 | 1330 ± 69.5 µM | good antimicrobial activity | 14.33 ± 0.36 mm | 1220 ± 40.5 µM | 16 mm | – | – | – | – | – | – | –
2 | CC(C)C[C@H](NC(=O)[C@H](CCCCN)NC(=O)CCNC(=O)[C@H](CC(C)C)NC(=O)[C@H](CCCCN)NC(=O)[C@H](CCCCN)NC(=O)CCNC(=O)[C@H](CC(C)C)NC(=O)[C@H](CCCCN)NC(=O)CCNC(=O)[C@H](CC(C)C)NC(=O)[C@@H](N)CCCCN)C(=O)NCCC(=O)N[C@@H](CCCCN)C(N)=O [Si5, (KLβ-AKLβ-AK)2-NH2] (H-KL[βAla]KL[βAla]KKL[βAla]KL[βAla]K-NH2) | – | complete hydrolytic stability | 1250 ± 34.1 µM | 1.028 ± 0.033 | – | 1450 ± 15.7 µM | 0.890 ± 0.033 | 1290 ± 38.1 µM | did not show any antifungal activity | – | 1270 ± 70.7 µM | – | 11.16 ± 0.25 mm | 0 mm | 11.83 ± 0.27 mm | – | – | – | –
3 | CC(C)C[C@H](NC(=O)[C@H](CCCCN)NC(=O)CN1C(=O)c2cccc3cccc(c23)C1=O)C(=O)N[C@@H](C)C(=O)N[C@@H](CCCCN)C(=O)N[C@@H](CC(C)C)C(=O)N[C@@H](C)C(=O)N[C@@H](CCCCN)C(=O)N[C@@H](CCCCN)C(=O)N[C@@H](CC(C)C)C(=O)N[C@@H](C)C(=O)N[C@@H](CCCCN)C(=O)N[C@@H](CC(C)C)C(=O)N[C@@H](C)C(=O)N[C@@H](CCCCN)C(N)=O [Si9, 1,8-NphtG-(KLAKLAK)2-NH2] | – | complete hydrolytic stability | 45 ± 4.2 µM | 2.19 ± 0.147 | – | 179 ± 2.92 µM | 0.553 ± 0.037 | 99.1 ± 5.59 µM | 20.66 ± 0.45 mm | – | 185 ± 4.4 µM | – | 13.50 ± 0.34 mm | – | 11.33 ± 0.26 mm | 45.2 ± 4.15 µM | 2.192 ± 0.147 | – | –
4 | CC(C)C[C@H](NC(=O)[C@H](CCCCN)NC(=O)/C=C/c1ccc(O)c(O)c1)C(=O)N[C@@H](C)C(=O)N[C@@H](CCCCN)C(=O)N[C@@H](CC(C)C)C(=O)N[C@@H](C)C(=O)N[C@@H](CCCCN)C(=O)N[C@@H](CCCCN)C(=O)N[C@@H](CC(C)C)C(=O)N[C@@H](C)C(=O)N[C@@H](CCCCN)C(=O)N[C@@H](CC(C)C)C(=O)N[C@@H](C)C(=O)N[C@@H](CCCCN)C(N)=O [Si10, Caf-(KLAKLAK)2-NH2] | – | complete hydrolytic stability | 50.5 ± 1.66 µM | 1.4 ± 0.072 and 1.44 | – | 177 ± 2.79 µM | 0.411 ± 0.023 | 72.5 ± 4.69 µM | 17.66 ± 0.41 mm | – | 173 ± 8.51 µM | – | 12.66 ± 0.31 mm | – | 13.33 ± 0.33 mm | – | – | 1.436 ± 0.072 | 122 to 124 °C
5 | CC(C)C[C@H](NC(=O)[C@H](CCCCN)NC(=O)/C=C/c1ccc(O)c(O)c1)C(=O)NCCC(=O)N[C@@H](CCCCN)C(=O)N[C@@H](CC(C)C)C(=O)NCCC(=O)N[C@@H](CCCCN)C(=O)N[C@@H](CCCCN)C(=O)N[C@@H](CC(C)C)C(=O)NCCC(=O)N[C@@H](CCCCN)C(=O)N[C@@H](CC(C)C)C(=O)NCCC(=O)N[C@@H](CCCCN)C(N)=O [Si12, Caf-(KLβ-AKLβ-AK)2-NH2] (Caffeoyl-KL[βAla]KL[βAla]KKL[βAla]KL[βAla]K-NH2) | – | – | – | – | – | – | – | – | did not show any antifungal activity | – | 880 ± 30.3 µM | – | good antimicrobial activity | – | good antimicrobial activity | – | – | – | 160 to 162 °C

Source: paper PMC8658989, “Synthesis and Biological Studies on (KLAKLAK)2-NH2 Analog Containing Unnatural Amino Acid β-Ala and Conjugates with Second Pharmacophore” (Molecules, 2021)
